How the values were obtained:
human TLR7 = biological target: T1, human TLR7 (Homo sapiens, UniProt Q9NYK1); test: TLR7 inhibition reporter assay (HEK-Blue cells, SEAP reporter, gardiquimod stimulation); type: cell-based; conditions: HEK-Blue cells overexpressing human TLR7, gardiquimod 7.5 μM
T1 construct: host or cells: HEK-Blue cells
T1 sequence (Q9NYK1 27-1049): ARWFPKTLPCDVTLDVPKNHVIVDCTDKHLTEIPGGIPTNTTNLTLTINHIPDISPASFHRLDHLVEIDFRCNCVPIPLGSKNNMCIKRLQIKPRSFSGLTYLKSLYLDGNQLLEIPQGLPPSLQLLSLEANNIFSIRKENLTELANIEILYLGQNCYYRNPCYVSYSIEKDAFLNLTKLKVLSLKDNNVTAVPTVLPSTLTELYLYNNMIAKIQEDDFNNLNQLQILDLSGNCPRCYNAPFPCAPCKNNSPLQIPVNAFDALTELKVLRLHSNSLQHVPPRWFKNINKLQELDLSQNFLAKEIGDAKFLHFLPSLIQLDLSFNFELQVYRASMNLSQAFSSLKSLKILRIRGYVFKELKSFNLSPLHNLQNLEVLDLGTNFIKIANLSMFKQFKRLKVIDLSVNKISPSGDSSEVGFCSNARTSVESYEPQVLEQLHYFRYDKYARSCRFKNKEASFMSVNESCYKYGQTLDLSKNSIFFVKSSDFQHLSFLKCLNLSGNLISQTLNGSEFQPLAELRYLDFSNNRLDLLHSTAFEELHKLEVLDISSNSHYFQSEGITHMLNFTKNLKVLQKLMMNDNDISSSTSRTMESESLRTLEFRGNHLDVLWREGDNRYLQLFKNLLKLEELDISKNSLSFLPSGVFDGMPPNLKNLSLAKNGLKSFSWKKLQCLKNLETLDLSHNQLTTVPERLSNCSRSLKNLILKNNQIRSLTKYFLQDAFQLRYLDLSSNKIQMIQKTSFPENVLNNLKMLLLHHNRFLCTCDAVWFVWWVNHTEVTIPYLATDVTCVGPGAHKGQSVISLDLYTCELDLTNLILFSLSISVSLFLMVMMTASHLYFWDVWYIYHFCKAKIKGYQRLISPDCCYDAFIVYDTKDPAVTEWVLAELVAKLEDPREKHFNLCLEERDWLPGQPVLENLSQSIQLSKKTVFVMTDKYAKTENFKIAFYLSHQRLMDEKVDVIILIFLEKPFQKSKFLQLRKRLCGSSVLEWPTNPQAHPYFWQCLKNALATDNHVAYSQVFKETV
In short: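 22 h, 37° C, 5% CO2 incubation; compounds 0.05 nM-50 μM final; TLR7 cells 15000/well, TLR8 20,000/well. Readout: SEAP via HEK-Blue Detection medium. % inhibition = signal reduction versus agonist + DMSO wells, referenced to known inhibitor.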

human TLR8 = biological target: T2, human TLR8 (Homo sapiens, UniProt Q9NR97); test: TLR8 inhibition reporter assay (HEK-Blue cells, SEAP reporter, R848 stimulation); type: cell-based; conditions: HEK-Blue cells overexpressing human TLR8, R848 15.9 μM
T2 construct: host or cells: HEK-Blue cells
T2 sequence (Q9NR97 27-1041): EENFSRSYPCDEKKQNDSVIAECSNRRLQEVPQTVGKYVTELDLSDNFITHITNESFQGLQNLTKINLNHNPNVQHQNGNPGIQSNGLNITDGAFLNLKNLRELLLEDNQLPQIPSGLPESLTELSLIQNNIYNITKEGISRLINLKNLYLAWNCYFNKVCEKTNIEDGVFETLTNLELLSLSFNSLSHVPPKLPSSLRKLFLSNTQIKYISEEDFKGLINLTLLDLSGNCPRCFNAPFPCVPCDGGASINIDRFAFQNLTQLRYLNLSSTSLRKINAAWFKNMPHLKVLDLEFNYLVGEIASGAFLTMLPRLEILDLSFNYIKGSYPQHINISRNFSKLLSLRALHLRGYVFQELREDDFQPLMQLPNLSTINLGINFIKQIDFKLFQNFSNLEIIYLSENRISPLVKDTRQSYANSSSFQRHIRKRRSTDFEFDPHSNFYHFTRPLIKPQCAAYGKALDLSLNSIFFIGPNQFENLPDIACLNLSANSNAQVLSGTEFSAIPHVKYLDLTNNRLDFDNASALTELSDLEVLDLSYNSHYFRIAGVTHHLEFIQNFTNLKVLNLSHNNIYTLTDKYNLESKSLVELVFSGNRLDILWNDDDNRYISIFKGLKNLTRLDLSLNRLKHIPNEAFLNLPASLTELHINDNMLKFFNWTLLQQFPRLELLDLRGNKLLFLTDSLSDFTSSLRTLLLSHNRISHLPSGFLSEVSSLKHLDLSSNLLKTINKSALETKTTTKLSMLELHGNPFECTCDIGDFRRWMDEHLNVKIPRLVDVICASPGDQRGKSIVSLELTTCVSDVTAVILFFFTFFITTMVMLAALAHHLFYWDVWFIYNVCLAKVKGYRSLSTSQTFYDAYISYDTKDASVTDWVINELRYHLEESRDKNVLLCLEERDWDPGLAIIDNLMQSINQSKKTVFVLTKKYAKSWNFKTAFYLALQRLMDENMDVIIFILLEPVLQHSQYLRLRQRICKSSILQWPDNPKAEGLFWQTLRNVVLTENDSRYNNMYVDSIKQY
Experimental: TLR7/8/9 Inhibition Reporter Assays
Briefly, cells are seeded into Greiner 384 well plates (15000 cells per well for TLR7, 20,000 for TLR8 and 25,000 for TLR9) and then treated with test compounds in DMSO to yield a final dose response concentration range of 0.05 nM-50 μM. […] After a 22 hour incubation at 37° C., 5% CO2, SEAP levels are determined with the addition of HEK-Blue™ Detection reagent (Invivogen), a cell culture medium that allows for detection of SEAP, according to manufacturer's specifications. The percent inhibition is determined as the % reduction in the HEK-Blue signal present in wells treated with agonist plus DMSO alone compared to wells treated with a known inhibitor.

IC50 (human TLR7) [µM]	IC50 (human TLR8) [µM]	Structure (SMILES)
1.87	0.248	CCc1c(-c2ccc(OC)c(OC)c2)[nH]c2ccc(C3CCN(C4CCN(Cc5cnc(C)o5)CC4)CC3)cc12 [Example 124, 5-((4-(2-(3,4-dimethoxyphenyl)-3-ethyl-1H-indol-5-yl)-[1,4′-bipiperidin]-1′-yl)methyl)-2-methyloxazole]
0.182	0.15	CCc1c(-c2ccc(OC)c(OC)c2)[nH]c2ccc(C3CCN(C4CCN(Cc5c[nH]cn5)CC4)CC3)cc12 [Example 125, 5-(1′-((1H-imidazol-4-yl)methyl)-[1,4′-bipiperidin]-4-yl)-2-(3,4-dimethoxyphenyl)-3-ethyl-1H-indole]
0.92	0.114	CCc1c(-c2ccc(OC)c(OC)c2)[nH]c2ccc(C3CCN(C4CCN(Cc5coc(C)n5)CC4)CC3)cc12 [Example 126, 4-((4-(2-(3,4-dimethoxyphenyl)-3-ethyl-1H-indol-5-yl)-[1,4′-bipiperidin]-1′-yl)methyl)-2-methyloxazole]
1.62	0.345	CCOC(=O)c1c(C)[nH]c(CN2CCC(N3CCC(c4ccc5[nH]c(-c6ccc(OC)c(OC)c6)c(CC)c5c4)CC3)CC2)c1C [Example 127, ethyl 5-((4-(2-(3,4-dimethoxyphenyl)-3-ethyl-1H-indol-5-yl)-[1,4′-bipiperidin]-1′-yl)methyl)-2,4-dimethyl-1H-pyrrole-3-carboxylate]
3.28	0.629	CCc1c(-c2ccc(OC)c(OC)c2)[nH]c2ccc(C3CCN(C4CCN(Cc5cc6ccccc6[nH]5)CC4)CC3)cc12 [Example 128, 5-(1′-((1H-indol-2-yl)methyl)-[1,4′-bipiperidin]-4-yl)-2-(3,4-dimethoxyphenyl)-3-ethyl-1H-indole]
4.17	0.792	CCc1c(-c2ccc(OC)c(OC)c2)[nH]c2ccc(C3CCN(C4CCN(Cc5csnn5)CC4)CC3)cc12 [Example 130, 4-((4-(2-(3,4-dimethoxyphenyl)-3-ethyl-1H-indol-5-yl)-[1,4′-bipiperidin]-1′-yl)methyl)-1,2,3-thiadiazole]
0.371	0.056	CCc1c(-c2ccc(OC)c(OC)c2)[nH]c2ccc(C3CCN(C4CCN(Cc5cc(C)n[nH]5)CC4)CC3)cc12 [Example 131, 2-(3,4-dimethoxyphenyl)-3-ethyl-5-(1′-((3-methyl-1H-pyrazol-5-yl)methyl)-[1,4′-bipiperidin]-4-yl)-1H-indole]
≥ 50	≥ 50	CCc1c(-c2ccc(OC)c(OC)c2)[nH]c2ccc(C3CCN(C4CCN(Cc5cc(C)nn5C)CC4)CC3)cc12 [Example 132, 2-(3,4-dimethoxyphenyl)-5-(1′-((1,3-dimethyl-1H-pyrazol-5-yl)methyl)-[1,4′-bipiperidin]-4-yl)-3-ethyl-1H-indole]
0.208	0.16	CCc1c(-c2ccc(OC)c(OC)c2)[nH]c2ccc(C3CCN(C4CCN(Cc5ccn(C)n5)CC4)CC3)cc12 [Example 133, 2-(3,4-dimethoxyphenyl)-3-ethyl-5-(1′-((1-methyl-1H-pyrazol-3-yl)methyl)-[1,4′-bipiperidin]-4-yl)-1H-indole]
4.69	1.29	CCc1c(-c2ccc(OC)c(OC)c2)[nH]c2ccc(C3CCN(C4CCN(Cc5cc6ccccc6n5C)CC4)CC3)cc12 [Example 137, 2-(3,4-dimethoxyphenyl)-3-ethyl-5-(1′-((1-methyl-1H-indol-2-yl)methyl)-[1,4′-bipiperidin]-4-yl)-1H-indole]
3.51	0.268	CCc1c(-c2ccc(OC)c(OC)c2)[nH]c2ccc(C3CCN(C4CCN(Cc5c(C)noc5C)CC4)CC3)cc12 [Example 138, 4-((4-(2-(3,4-dimethoxyphenyl)-3-ethyl-1H-indol-5-yl)-[1,4′-bipiperidin]-1′-yl)methyl)-3,5-dimethylisoxazole]
0.579	0.206	CCc1c(-c2ccc(OC)c(OC)c2)[nH]c2ccc(C3CCN(C4CCN(Cc5sccc5C)CC4)CC3)cc12 [Example 139, 2-(3,4-dimethoxyphenyl)-3-ethyl-5-(1′-((3-methylthiophen-2-yl)methyl)-[1,4′-bipiperidin]-4-yl)-1H-indole]
1.02	0.24	CCc1c(-c2ccc(OC)c(OC)c2)[nH]c2ccc(C3CCN(C4CCN(Cc5ccc(C)s5)CC4)CC3)cc12 [Example 140, 2-(3,4-dimethoxyphenyl)-3-ethyl-5-(1′-((5-methylthiophen-2-yl)methyl)-[1,4′-bipiperidin]-4-yl)-1H-indole]
3.74	9.78	CCc1c(-c2ccc(OC)c(OC)c2)[nH]c2ccc(C3CCN(C4CCN(Cc5ccc(-c6ccccc6)s5)CC4)CC3)cc12 [Example 141, 2-(3,4-dimethoxyphenyl)-3-ethyl-5-(1′-((5-phenylthiophen-2-yl)methyl)-[1,4′-bipiperidin]-4-yl)-1H-indole]
0.898	0.101	CCc1c(-c2ccc(OC)c(OC)c2)[nH]c2ccc(C3CCN(C4CCN(Cc5ccsc5)CC4)CC3)cc12 [Example 142, 2-(3,4-dimethoxyphenyl)-3-ethyl-5-(1′-(thiophen-3-ylmethyl)-[1,4′-bipiperidin]-4-yl)-1H-indole]
1.26	0.706	CCc1c(-c2ccc(OC)c(OC)c2)[nH]c2ccc(C3CCN(C4CCN(Cc5ccc(-c6ccccc6)o5)CC4)CC3)cc12 [Example 143, 2-(3,4-dimethoxyphenyl)-3-ethyl-5-(1′-((5-phenylfuran-2-yl)methyl)-[1,4′-bipiperidin]-4-yl)-1H-indole]
0.473	0.073	CCc1c(-c2ccc(OC)c(OC)c2)[nH]c2ccc(C3CCN(C4CCN(Cc5cc(C)n(C)n5)CC4)CC3)cc12 [Example 144, 2-(3,4-dimethoxyphenyl)-5-(1′-((1,5-dimethyl-1H-pyrazol-3-yl)methyl)-[1,4′-bipiperidin]-4-yl)-3-ethyl-1H-indole]
0.292	0.101	CCc1c(-c2ccc(OC)c(OC)c2)[nH]c2ccc(C3CCN(C4CCN(Cc5ccccc5)CC4)CC3)cc12 [Example 147, 5-(1′-benzyl-[1,4′-bipiperidin]-4-yl)-2-(3,4-dimethoxyphenyl)-3-ethyl-1H-indole]

— patent US11180474B2 (BRISTOL-MYERS SQUIBB COMPANY, priority 2016, dated 2021)
